Experimental data taken from patent US11859229B2, “Polyvinyl alcohol-degrading enzyme and process for producing the same” (Hayashibara Co., Ltd., priority 2017, dated 2024).

How the values were obtained:
Type in all cases: biochemical, Pseudomonas sp. VT1B strain (NBRC110478)
PVA-A [1] = experiment: Substrate specificity of PVA-oxidizing activity of PVA-A; details: substrate 1% (v/v) or saturated; activity against PVA = 100%
Protocol: (§1) To 0.5 mL of a substrate solution prepared by dissolving PVA (Reagent grade polyvinyl alcohol, polymerization degree: 2,000, Nacalai Tesque Inc., Kyoto, Japan) into 100 mM sodium phosphate buffer (pH 7.0) to give a concentration of 2% (w/v), 15 µL of 2% (w/v) of sodium azide solution was added, and then 0.5 mL of an enzyme solution is further added and reacted with shaking at 27° C. for 60 min. After the 60 min-reaction, the reaction was stopped by mixing 0.32 mL of the reaction mixture to 0.8 mL of a titanium reagent, and the yellow color, produced by reacting hydrogen peroxide formed by the enzyme reaction and the titanium reagent, was measured by measuring the absorbance at 410 nm (A410) as an index. Separately, the enzyme solution was added to the substrate solution, and the resulting mixture is immediately mixed with the titanium reagent. The resulting mixture was similarly measured its color and the value was used as the value at the reaction zero minutes. Then, the amount of the formed hydrogen peroxide is determined and the PVA-oxidizing activity is calculated based on the following formula. It is known that the absorbance at 410 nm (A410) increases by “1” when 3.65 […]mole/mL of hydrogen peroxide is formed. Therefore, in the following Formula 1, the coefficient of “3.65” has been multiplied. One unit of the PVA-oxidizing activity is defined as the amount of enzyme that forms 1 […]mole of hydrogen peroxide per min under the above conditions. Titanium reagent is prepared by diluting 5% titanium sulfate (IV) solution, commercialized by Nacalai Tesque Inc., Kyoto, Japan, 25-fold with 10% (w/w) sulfuric acid.
(§2) The substrate specificity of PVA-oxidizing activity was investigated by allowing PVA-A and PVA-B, the purified enzyme preparations obtained by the method in Experiment 2, to act on various secondary alcohols, primary alcohols and the like as substrates. In other words, the PVA-oxidizing activity of the enzymes was measured for primary alcohols having different chain length (methanol, ethanol, propanol, butanol, pentanol, hexanol, heptanol, and decanol), secondary alcohols (2-propanol, 2-pentanol, 2-hexanol, 4-heptanol, 2-octanol, 4-decanol, and 2, 4-pentanediol), and a tertiary alcohol (tert-butanol).

PVA-B [2] = experiment: Substrate specificity of PVA-oxidizing activity of PVA-B; details: substrate 1% (v/v) or saturated; activity against PVA = 100%
Protocol: as §1, §2

PVA-A [3] = experiment: Effects of various metal salts on PVA-oxidizing activity of PVA-A
Protocol: as §1
(§3) Using the purified enzyme preparations of PVA-A and PVA-B, obtained by the method of Experiment 2, effects of various metal salts on the enzyme activity were investigated according to the assay of the PVA-oxidizing activity as an index in the presence of 1 mM metal salts.

PVA-B [4] = experiment: Effects of various metal salts on PVA-oxidizing activity of PVA-B
Protocol: as §1, §3

PVA-A and PVA-B = experiment: Effects of metal salts on PVA-oxidizing activity, summary for both enzymes; details: 1 mM, in words
Protocol: as §3

[5] = PVA-oxidizing activity in the presence of 1 mM metal salts, None = 100

Molecule | Relative activity (%) PVA-A (PVA-A [1]) | Relative activity (%) PVA-B (PVA-B [2]) | Relative activity (%) PVA-A (PVA-A [3]; [5]) | Relative activity (%) PVA-B (PVA-B [4]; [5]) | also measured
CCCCCCO [Hexanol] | 0% | 1% |  |  | 
[Cl-].[Na+] [NaCl] |  |  |  |  | Relative activity (%) PVA-A (PVA-A [3]): 94%; Relative activity (%) PVA-B (PVA-B [4]): 106%
CCCCCCC(O)CCC (stereo not shown) [4-Decanol] | 3% | 1% |  |  | 
CCCCCCC(C)O (stereo not shown) [2-Octanol] | 3% | 6% |  |  | 
CCCO [Propanol] | 0% | 0% |  |  | 
[Ca+2].[Cl-].[Cl-] [CaCl2] |  |  | 98% | 98% | 
[Cl-].[K+] [KCl] |  |  | 93% | 116% | 
[Cl-].[Cl-].[Mg+2] [MgCl2] |  |  | 98% | 104% | 
CCCCCCCCCCO [Decanol] | 0% | 0% |  |  | 
[Cl][Hg][Cl] [HgCl2] |  |  | 22% | 4% | Effect on PVA-oxidizing activity (PVA-A and PVA-B): remarkably inhibited
CO [Methanol] | 0% | 0% |  |  | 
O=C(O)CN(CCN(CC(=O)O)CC(=O)O)CC(=O)O [EDTA] |  |  | 56% | 45% | Effect on PVA-oxidizing activity (PVA-A and PVA-B): also inhibited
[Cl-].[Cl-].[Sr+2] [SrCl2] |  |  | 99% | 101% | 
CCCCCO [Pentanol] | 0% | 0% |  |  | 
[Cl][Sn][Cl] [SnCl2] |  |  | 78% | 102% | 
CCCCCCCO [Heptanol] | 0% | 1% |  |  | 
RbCl2 |  |  | 91% | 99% | 
CC(C)O [2-Propanol] | 0% | 1% |  |  | 
CC(C)(C)O [tert-Butanol] | 0% | 1% |  |  | 
CCCC(C)O (stereo not shown) [2-Pentanol] | 2% | 5% |  |  | 
CCCC(O)CCC [4-Heptanol] | 21% | 12% |  |  | 
[Cl][Fe]([Cl])[Cl] [FeCl3] |  |  | 29% | 19% | Effect on PVA-oxidizing activity (PVA-A and PVA-B): remarkably inhibited
[Cl][Al]([Cl])[Cl] [AlCl3] |  |  | 91% | 63% | 
CC(O)CC(C)O (stereo not shown) [2,4-Pentanediol] | 0% | 0% |  |  | 
CCO [Ethanol] | 0% | 0% |  |  | 
[Cl][Ni][Cl] [NiCl2] |  |  | 91% | 76% | 
Butanol | 0% | 0% |  |  | 
[Cl][Mn][Cl] [MnCl2] |  |  | 96% | 87% | 
CCCCC(C)O (stereo not shown) [2-Hexanol] | 5% | 8% |  |  | 
